In general, chromatographic logP refers to lipophilicity estimated from chromatographic retention. A lower chromatographic logP goes with a more hydrophilic compound.

Structures are written as SMILES.

This passage reports pest or weed control and chromatographic logP results from patent publication US9556158B2, “Fungicidal 3-[(pyridin-2-ylmethoxyimino)(phenyl)methyl]-2-substituted-1,2,4-oxadiazol-5(2H)-one derivatives” (BAYER INTELLECTUAL PROPERTY GMBH, priority 2011, dated 2017).

Series [1] deals with Phytophthora infestans. The series can be described thus: whole plant or invertebrate. The format is in vivo. The conditions noted are these: in Solanum lycopersicum, 120 h, read-out: % efficacy.
The subject of series [2] is Pyricularia oryzae. The series can be described thus: whole plant or invertebrate. The following applies: 144 h, read-out: % efficacy. The format is in vivo.
The conditions of series [3]: pH 2.7, LogP, HPLC on reversed phase columns, pH 2.7, 0.1% formic acid in water / acetonitrile gradient.
Method: Measurement of log P values was performed according EEC directive 79/831 Annex V.A8 by HPLC (High Performance Liquid Chromatography) on reversed phase columns with the following method:
Measurement of LC-MS was done at pH 2.7 with 0.1% formic acid in water and with acetonitrile (contains 0.1% formic acid) as eluent with a linear gradient from 10% acetonitrile to 95% acetonitrile.
Calibration was done with not branched alkan2-ones (with 3 to 16 carbon atoms) with known log P-values (measurement of log P values using retention times with linear interpolation between successive alkanones). lambda-maX-values were determined using UV-spectra from 200 nm to 400 nm and the peak values of the chromatographic signals.
Series [4] relates to Plasmopara viticola. The series can be described thus: Example I: in vivo preventive test on Plasmopara viticola (grapevine). The conditions noted are these: 144 h, 10 ppm of active ingredient, preventive spray on young plants, evaluated 6 days after inoculation, read-out: Eff. %. The procedure:
In Vivo Preventive Test on Plasmopara viticola (Grapevine)
To produce a suitable preparation of active compound, 1 part by weight of active compound is mixed with the stated amounts of solvent and emulsifier, and the concentrate is diluted with water to the desired concentration.
To test for preventive activity, young plants are sprayed with the preparation of active compound at the stated rate of application. After the spray coating has dried on, the plants are inoculated with an aqueous spore suspension of Plasmopara viticola and then remain for 1 day in an incubation cabinet at approximately 20° C. and a relative atmospheric humidity of 100%. The plant is subsequently placed for 4 days in a greenhouse at approximately 21° C. and a relative atmospheric humidity of approximately 90%. The plants are then misted and placed for 1 day in an incubation cabinet.
The test is evaluated 6 days after the inoculation. 0% means an efficacy which corresponds to that of the untreated control, while an efficacy of 100% means that no disease is observed.

As for `C#CCOC(=O)Nc1cccc(CON=C(c2cccc(F)c2)c2nc(=O)o[nH]2)n1` [Example 46], the pest or weed control at 500 ppm in series [1] worked out at 100%; in series [2], 83%. In addition, in series [3], the chromatographic logP was determined as 2.69.

As for `O=C(COc1ccccc1)Nc1cccc(CON=C(c2cccc(F)c2)c2nc(=O)o[nH]2)n1` [Example 51], the pest or weed control at 500 ppm in series [1] was 100%; in series [2], 83%. The chromatographic logP in series [3] is 3.21.

For the molecule `CCCCCC(=O)Nc1cccc(CON=C(c2cccc(OC)c2)c2nc(=O)o[nH]2)n1` [Example 53], the pest or weed control at 500 ppm in series [1] was found to be 95%; in series [2], 75%. The molecule also registered a chromatographic logP in series [3] of 3.31.

On to `CCCCOC(=O)Nc1cccc(CON=C(c2ccccc2)c2nc(=O)on2C)n1` [Example 14], for which the pest or weed control at 500 ppm in series [1] was 100%. The chromatographic logP in series [3] amounted to 3.39. Also, the pest or weed control at 10 ppm in series [4] is 94%.

With `C#CCCOC(=O)Nc1cccc(CON=C(c2cccc(F)c2)c2nc(=O)o[nH]2)n1` [Example 49], the pest or weed control at 500 ppm in series [1] is 93%; in series [2], 83%. Also, in series [3], the chromatographic logP was found to be 2.8.

With `CCCCCOC(=O)Nc1cccc(CON=C(c2ccccc2)c2nc(=O)on2C)n1` [Example 13], the pest or weed control at 500 ppm in series [1] amounted to 100%. Moreover, the chromatographic logP in series [3] came out at 3.81. Besides, in series [4], the pest or weed control at 10 ppm was found to be 95%.

For the molecule `Cc1cccc(C(=NOCc2cccc(NC(=O)OC(C)(C)C)n2)c2nc(=O)on2C)c1` [Example 21], the pest or weed control at 500 ppm in series [1] turned out to be 100%. This molecule showed a chromatographic logP in series [3] of 3.65.

For the molecule `Cc1cccc(C(=NOCc2cccc(N)n2)c2nc(=O)on2C)c1` [Example 31], the pest or weed control at 500 ppm in series [1] turned out to be 93%. Moreover, the chromatographic logP in series [3] worked out at 1.17.

On to `Cn1oc(=O)nc1/C(=N\OCc1cccc(NC(=O)OCCc2ccccc2)n1)c1ccccc1` [Example 15, 2-phenylethyl {6-[({[(Z)-(2-methyl-5-oxo-2,5-dihydro-1,2,4-oxadiazol-3-yl)(phenyl)methylene]amino}oxy)methyl]pyridin-2-yl}carbamate], for which the pest or weed control at 500 ppm in series [1] was 99%. In addition, in series [3], the chromatographic logP was determined as 3.57. In addition, the pest or weed control at 10 ppm in series [4] was 94%.

As for `CCCCOC(=O)Nc1cccc(CON=C(c2cccc(F)c2)c2nc(=O)o[nH]2)n1` [Example 71], the pest or weed control at 500 ppm in series [1] is 95%. Besides, in series [3], the chromatographic logP came out at 3.48.

For the molecule `CC#CCOC(=O)Nc1cccc(CON=C(c2cccc(C)c2)c2nc(=O)on2C)n1` [Example 107], in series [1], the pest or weed control at 500 ppm was found to be 93%. Moreover, the chromatographic logP in series [3] came out at 3.13.

For the molecule `Cc1cccc(C(=NOCc2cccc(NC(=O)C(C)(C)C)n2)c2nc(=O)on2C)c1` [Example 57], the pest or weed control at 500 ppm in series [1] turned out to be 75%. In addition, in series [3], the chromatographic logP worked out at 3.17.

`C#CCC(C)OC(=O)Nc1cccc(CON=C(c2cccc(F)c2)c2nc(=O)on2C)n1` (stereo not shown) [Example 99]: the pest or weed control at 500 ppm in series [1] was determined as 100%. For the same molecule, in series [3], the chromatographic logP came to 3.09.

With `CCCCC(=O)Nc1cccc(CON=C(c2cccc(C)c2)c2nc(=O)on2C)n1` [Example 60], the pest or weed control at 500 ppm in series [1] stood at 89%. Moreover, the chromatographic logP in series [3] came out at 3.19.

As for `COc1cccc(C(=O)Nc2cccc(CON=C(c3cccc(F)c3)c3nc(=O)o[nH]3)n2)c1` [Example 64], in series [1], the pest or weed control at 500 ppm was 85%. The same molecule yielded a chromatographic logP in series [3] of 3.13.

Consider `Cn1oc(=O)nc1C(=NOCc1cccc(N)n1)c1cccc(F)c1` [Example 23], for which the pest or weed control at 500 ppm in series [1] was determined as 98%. This molecule also came in with a chromatographic logP in series [3] of 0.99.

As to `COc1cccc(C(=NOCc2cccc(NC(=O)Cc3cccc(F)c3)n2)c2nc(=O)on2C)c1` [Example 105], the pest or weed control at 500 ppm in series [1] came to 75%. Further, the chromatographic logP in series [3] came out at 3.09.

For the molecule `CCCCSC(=S)Nc1cccc(CON=C(c2ccccc2)c2nc(=O)on2C)n1` [Example 38], the pest or weed control at 500 ppm in series [1] amounted to 93%. The molecule further yielded a chromatographic logP in series [3] of 4.15.

`C#CCC(C)OC(=O)Nc1cccc(CON=C(c2cccc(OC)c2)c2nc(=O)on2C)n1` (stereo not shown) [Example 94]: the pest or weed control at 500 ppm in series [1] came out at 85%. The chromatographic logP in series [3] is 3.02.

As to `CCCCOC(=O)Nc1cccc(CON=C(c2cccc(OC)c2)c2nc(=O)o[nH]2)n1` [Example 66], the pest or weed control at 500 ppm in series [1] came out at 70%. In series [3], the chromatographic logP amounted to 3.42.

As for `CC(C)CCOC(=O)Nc1cccc(CON=C(c2cccc(F)c2)c2nc(=O)o[nH]2)n1` [Example 52], the pest or weed control at 500 ppm in series [1] was 100%; in series [2] it was 75%. In series [3], this molecule returned a chromatographic logP of 3.83.

As for `CCCCCCC(=O)Nc1cccc(CON=C(c2cccc(OC)c2)c2nc(=O)o[nH]2)n1` [Example 50], the pest or weed control at 500 ppm in series [1] is 100%. This molecule yielded a chromatographic logP in series [3] of 3.71.

`CC(Oc1ccccc1)C(=O)Nc1cccc(CON=C(c2cccc(F)c2)c2nc(=O)on2C)n1` (stereo not shown) [Example 97]: in series [1], the pest or weed control at 500 ppm was determined as 70%. The chromatographic logP in series [3] was 3.44.

Consider `CCCCC(=O)Nc1cccc(CON=C(c2ccccc2)c2nc(=O)on2C)n1` [Example 12], for which the pest or weed control at 500 ppm in series [1] came out at 100%. The chromatographic logP in series [3] is 2.9.

Consider `Cn1oc(=O)nc1C(=NOCc1cccc(NC(=O)OC2CCCCC2)n1)c1ccccc1` [Example 26], for which the pest or weed control at 500 ppm in series [1] was 99%. In series [3], this molecule registered a chromatographic logP of 3.81.

Regarding `Cc1ccc(C(=O)Nc2cccc(CON=C(c3cccc(C)c3)c3nc(=O)on3C)n2)cc1` [Example 80], the pest or weed control at 500 ppm in series [1] was 80%. This molecule also came in with a chromatographic logP in series [3] of 3.53.

Regarding `Cc1cccc(C(=NOCc2cccc(NC(=O)OC3CCCCC3)n2)c2nc(=O)on2C)c1` [Example 30], in series [1], the pest or weed control at 500 ppm is 78%. Further, in series [3], the chromatographic logP is 4.11.

`CCCCC(=O)Nc1cccc(CON=C(c2cccc(OC)c2)c2nc(=O)o[nH]2)n1` [Example 54]: the pest or weed control at 500 ppm in series [1] came to 100%; in series [2] it was 83%. For the same molecule, the chromatographic logP in series [3] was determined as 2.96.

As to `Cc1cccc(C(=NOCc2cccc(NC(=O)C(C)Oc3ccccc3)n2)c2nc(=O)on2C)c1` (stereo not shown) [Example 103], the pest or weed control at 500 ppm in series [1] stood at 80%. In series [3], this molecule came in with a chromatographic logP of 3.64.

As to `COc1ccc(CC(=O)Nc2cccc(CON=C(c3cccc(OC)c3)c3nc(=O)o[nH]3)n2)cc1` [Example 48], the pest or weed control at 500 ppm in series [1] is 100%. Moreover, the chromatographic logP in series [3] came to 2.98.

Consider `COc1cccc(C(=NOCc2cccc(NC(=O)C(C)Oc3ccccc3)n2)c2nc(=O)o[nH]2)c1` (stereo not shown) [Example 44], for which the results for the pest or weed control at 500 ppm in series [1] and in series [2] were 100% and 83%, respectively. Also, in series [3], the chromatographic logP worked out at 3.39.

`CCCCCOC(=O)Nc1cccc(CON=C(c2cccc(F)c2)c2nc(=O)o[nH]2)n1` [Example 69]: the pest or weed control at 500 ppm in series [1] came out at 100%. In addition, the chromatographic logP in series [3] amounted to 3.89.

`O=C(CCc1ccccc1)Nc1cccc(CON=C(c2cccc(F)c2)c2nc(=O)o[nH]2)n1` [Example 47]: the pest or weed control at 500 ppm came out at 100% in series [1] and 75% in series [2]. In addition, the chromatographic logP in series [3] was 3.29.

As for `CCCCOC(=S)Nc1cccc(CON=C(c2ccccc2)c2nc(=O)on2C)n1` [Example 43], the pest or weed control at 500 ppm in series [1] was determined as 99%. This molecule also registered a chromatographic logP in series [3] of 3.89.

Consider `Cc1cccc(C(=NOCc2cccc(NC(=O)c3ccccc3)n2)c2nc(=O)on2C)c1` [Example 82], for which, in series [1], the pest or weed control at 500 ppm was found to be 75%. Moreover, the chromatographic logP in series [3] came to 3.21.

Regarding `COc1cccc(C(=NOCc2cccc(NC(=O)OCCC(C)C)n2)c2nc(=O)on2C)c1` [Example 101], the pest or weed control at 500 ppm in series [1] turned out to be 70%. Further, in series [3], the chromatographic logP is 3.78.

For `CC#CCOC(=O)Nc1cccc(CON=C(c2cccc(F)c2)c2nc(=O)o[nH]2)n1` [Example 65], the pest or weed control at 500 ppm in series [1] stood at 100%. In series [3], this molecule came in with a chromatographic logP of 2.94.

As to `Cc1cccc(C(=O)Nc2cccc(CON=C(c3cccc(F)c3)c3nc(=O)o[nH]3)n2)c1` [Example 75], the pest or weed control at 500 ppm in series [1] amounted to 98%. The molecule also yielded a chromatographic logP in series [3] of 3.35.

Consider `CCCCCCC(=O)Nc1cccc(CON=C(c2cccc(F)c2)c2nc(=O)o[nH]2)n1` [Example 70], for which, in series [1], the pest or weed control at 500 ppm was 80%. The chromatographic logP in series [3] was 3.76.

For the molecule `Cn1oc(=O)nc1/C(=N\OCc1cccc(NCCC2CCCCC2)n1)c1ccccc1` [Example 3, 3-[(Z)-[({6-[(2-cyclohexylethyl)amino]pyridin-2-yl}methoxy)imino](phenyl)methyl]-2-methyl-1,2,4-oxadiazol-5(2H)-one], the chromatographic logP in series [3] was found to be 2.43. In series [4], the pest or weed control at 10 ppm is 93%.

As for `COc1cccc(C(=O)Nc2cccc(CON=C(c3cccc(OC)c3)c3nc(=O)o[nH]3)n2)c1` [Example 63], the pest or weed control at 500 ppm in series [1] came to 80%. The molecule also gave a chromatographic logP in series [3] of 3.06.

As for `CCCCCC(=O)Nc1cccc(CON=C(c2cccc(F)c2)c2nc(=O)o[nH]2)n1` [Example 68], the pest or weed control at 500 ppm in series [1] is 98%. The chromatographic logP in series [3] stood at 3.37.

Take `O=C(Cc1cccc(F)c1)Nc1cccc(CON=C(c2cccc(F)c2)c2nc(=O)o[nH]2)n1` [Example 74]: the pest or weed control at 500 ppm in series [1] is 85%. In series [3], the chromatographic logP was determined as 3.13.
